Measured values reported in patent publication US20230190760A1, “ADVANTAGEOUS THERAPIES FOR DISORDERS MEDIATED BY IKAROS OR AIOLOS” (C4 Therapeutics, Inc., priority 2020, published 2023).

Key:
[1] = tested on: RPMI-8226 tumors; assay: RPMI-8226 multiple myeloma xenograft, CB17 SCID mice (Example 13); assay type: in vivo
Protocol: Compound 1 efficacy in two multiple myeloma cell lines (NC-H929) and (RPMI-8226) was evaluated at four different doses: 3 μg/kg, 10 μg/kg, 30 μg/kg, and 100 μg/kg. Compound 1 was administered QD (every day) orally (PO). […]
Statistical analysis was performed using two-way analysis of variance (ANOVA). Data are expressed as MTV±SEM.

[2] = tested on: TMD8 DLBCL tumors; conditions: Compound 1 50 μg/kg, Ibrutinib 12500 μg/kg
Protocol: A xenograft study was conducted in female CB17 SCID mice bearing TMD8 DLBCL tumors. Female SCID mice were inoculated subcutaneously in the right flank with 5×10^6 tumors cells in 0.2 mL of PBS supplemented with matrigel (PBS:matrigel=1:1). Tumor volume was measured twice weekly in two dimensions using calipers, and volume was calculated using the formula: (w2×l)/2=mm^3, assuming 1 mg is equivalent to 1 mm^3 of tumor volume. […] Treatment began on Day 0 with established subcutaneous TMD8 tumors with a mean tumor volume (MTV) of 107-108 mm^3.
All agents were administered to mice bearing TMD8 tumors on day 0 and dosed PO daily until individual tumor volumes reached or exceeded 1500 mm^3, at which point dosing stopped and the individual mouse was removed from the study. Compound 1 was dosed at 50 μg/kg and was formulated in PEG400 (30% v/v)+70% v/v HPMC (1% w/v) in citrate buffer (pH 5). Ibrutinib was dosed at 12.5 mg/kg and formulated in 0.5% MC+0.4% cremophor EL+0.1% sodium lauryl sulfate. Compound 1 was also dosed in combination with Ibrutinib at their respective single agent doses. Body weight and MTV was measured on a 2× weekly schedule and the study end point was when all mice were removed from the study on day 54. Statistical analysis was performed using survival analysis and the Logrank test (Mantel-Cox test). Data are expressed as MTV±SEM.

[3] = target: T1, Sal-like protein 4 (SALL4) (Homo sapiens, UniProt Q96SW2+Q9UJQ4); assay: SALL4 degradation in KELLY neuroblastoma cell line; assay type: cell-based; conditions: at 10 nM
T1 construct: endogenous in cells; host or cells: KELLY neuroblastoma cell line
T1 sequence (Q9UJQ4 whole entry): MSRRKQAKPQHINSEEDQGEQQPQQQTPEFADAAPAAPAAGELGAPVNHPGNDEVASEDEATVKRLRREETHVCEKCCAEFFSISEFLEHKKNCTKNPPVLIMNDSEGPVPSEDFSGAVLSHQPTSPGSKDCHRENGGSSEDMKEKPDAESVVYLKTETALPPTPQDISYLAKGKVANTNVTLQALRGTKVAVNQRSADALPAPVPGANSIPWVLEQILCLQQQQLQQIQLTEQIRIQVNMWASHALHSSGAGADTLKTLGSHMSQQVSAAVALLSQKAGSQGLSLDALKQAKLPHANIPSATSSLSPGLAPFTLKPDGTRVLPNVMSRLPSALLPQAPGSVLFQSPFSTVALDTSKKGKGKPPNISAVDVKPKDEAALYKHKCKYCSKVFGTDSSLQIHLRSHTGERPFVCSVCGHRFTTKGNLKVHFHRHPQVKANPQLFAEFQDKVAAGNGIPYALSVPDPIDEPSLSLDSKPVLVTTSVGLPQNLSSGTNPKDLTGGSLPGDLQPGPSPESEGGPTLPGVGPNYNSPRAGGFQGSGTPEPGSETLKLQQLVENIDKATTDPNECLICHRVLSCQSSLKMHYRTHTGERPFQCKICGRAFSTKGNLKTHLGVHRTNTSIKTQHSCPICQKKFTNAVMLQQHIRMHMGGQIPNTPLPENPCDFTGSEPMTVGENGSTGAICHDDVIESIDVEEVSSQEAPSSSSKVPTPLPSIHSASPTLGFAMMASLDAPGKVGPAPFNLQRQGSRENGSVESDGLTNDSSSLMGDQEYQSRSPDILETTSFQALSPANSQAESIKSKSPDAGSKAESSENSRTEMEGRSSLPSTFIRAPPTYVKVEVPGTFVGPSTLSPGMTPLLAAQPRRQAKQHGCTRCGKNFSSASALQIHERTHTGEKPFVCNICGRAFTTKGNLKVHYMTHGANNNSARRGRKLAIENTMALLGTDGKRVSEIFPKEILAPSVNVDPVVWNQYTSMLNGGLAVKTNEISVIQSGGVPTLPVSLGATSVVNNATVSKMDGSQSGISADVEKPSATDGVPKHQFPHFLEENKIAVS
T1 sequence (Q96SW2 whole entry): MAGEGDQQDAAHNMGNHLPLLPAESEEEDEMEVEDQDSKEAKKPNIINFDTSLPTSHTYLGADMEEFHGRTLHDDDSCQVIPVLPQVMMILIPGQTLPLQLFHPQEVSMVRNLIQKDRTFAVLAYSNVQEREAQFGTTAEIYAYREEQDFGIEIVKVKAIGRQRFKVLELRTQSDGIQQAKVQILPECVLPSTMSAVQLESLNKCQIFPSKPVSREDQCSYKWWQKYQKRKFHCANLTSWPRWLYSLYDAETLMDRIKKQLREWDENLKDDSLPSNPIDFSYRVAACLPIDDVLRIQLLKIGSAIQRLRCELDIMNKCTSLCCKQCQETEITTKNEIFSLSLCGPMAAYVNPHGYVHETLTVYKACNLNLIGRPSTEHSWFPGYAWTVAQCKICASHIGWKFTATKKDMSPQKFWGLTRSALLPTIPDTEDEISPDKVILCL
T1 sequence (Q16531 2-1140 partner limits assumed): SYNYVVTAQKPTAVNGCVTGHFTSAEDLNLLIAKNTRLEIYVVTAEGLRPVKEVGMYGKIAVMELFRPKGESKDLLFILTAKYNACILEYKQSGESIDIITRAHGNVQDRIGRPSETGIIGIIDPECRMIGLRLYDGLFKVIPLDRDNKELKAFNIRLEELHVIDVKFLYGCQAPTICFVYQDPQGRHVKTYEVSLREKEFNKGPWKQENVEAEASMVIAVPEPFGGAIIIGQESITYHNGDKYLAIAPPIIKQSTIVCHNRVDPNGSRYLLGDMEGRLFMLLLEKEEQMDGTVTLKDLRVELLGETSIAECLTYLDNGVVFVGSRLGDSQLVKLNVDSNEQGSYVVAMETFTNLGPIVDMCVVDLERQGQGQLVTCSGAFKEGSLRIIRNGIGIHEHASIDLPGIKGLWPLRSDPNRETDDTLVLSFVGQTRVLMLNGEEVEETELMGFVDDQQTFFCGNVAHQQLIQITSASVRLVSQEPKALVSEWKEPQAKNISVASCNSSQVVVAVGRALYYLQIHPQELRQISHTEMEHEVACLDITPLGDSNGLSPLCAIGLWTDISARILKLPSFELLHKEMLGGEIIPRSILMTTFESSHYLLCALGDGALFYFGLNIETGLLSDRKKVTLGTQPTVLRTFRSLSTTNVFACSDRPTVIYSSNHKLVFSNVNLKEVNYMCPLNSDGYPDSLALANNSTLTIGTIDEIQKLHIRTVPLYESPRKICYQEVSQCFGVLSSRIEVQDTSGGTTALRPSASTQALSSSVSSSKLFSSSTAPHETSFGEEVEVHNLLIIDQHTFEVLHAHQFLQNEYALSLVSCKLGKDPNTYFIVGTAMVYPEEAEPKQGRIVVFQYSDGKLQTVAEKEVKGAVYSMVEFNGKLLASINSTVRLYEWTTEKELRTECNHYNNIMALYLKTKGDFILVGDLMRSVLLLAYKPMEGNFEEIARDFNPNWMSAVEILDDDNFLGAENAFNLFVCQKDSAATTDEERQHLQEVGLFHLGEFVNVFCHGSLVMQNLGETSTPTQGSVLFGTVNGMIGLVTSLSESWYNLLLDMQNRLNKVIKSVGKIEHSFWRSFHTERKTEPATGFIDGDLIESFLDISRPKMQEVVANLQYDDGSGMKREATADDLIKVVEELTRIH
Protocol: Specific studies were carried out to assess the ability of Compound 1 to degrade Sal-like protein 4 (SALL4), a protein implicated in the teratogenicity induced by the IMiD®s class of IKZF1/IKZF3 degraders.

[4] = tested on: Interferon-response proteins in DL-40 ALCL xenograft tumors; assay: Global proteomics and gene ontology of DL-40 ALCL xenograft tumors, 48 hours after dose; assay type: in vivo, mice; conditions: 0.1 nM for 48 hr
Protocol: […] Gene ontology analysis was done by using BINGO, a Java-based tool that is implemented as a plugin for Cytoscape. Default settings were used to assess the overexpression of GO categories and the interactions among altered proteins were determined using the STRING database, with a cutoff score of 700.

O=C1CC[C@H](N2C(=O)c3cccc4c(Cc5ccc(CN6CCOCC6)cc5)ccc2c34)C(=O)N1 (single isomer, unassigned) [Compound 1]
Statistical Significance Compared to Vehicle ([1]; 30 μg/kg PO QD): 0.01 | Statistical Significance Compared to Vehicle ([1]; 100 μg/kg PO QD): 0.009 | Median Survival ([2]; Combination of both, PO daily): 30 | Statistical Significance Compared to Vehicle ([2]; survival, Logrank, Combination): 0.02 | degradation of SALL4 [3]: more than 85% | Log2 vs Vehicle, AAAS [4]: 0.043 | Log2 vs Vehicle, ABCE1 [4]: −0.112 | Log2 vs Vehicle, ADAR [4]: 0.065 | Log2 vs Vehicle, ARIHI [4]: 0.023 | Log2 vs Vehicle, B2M [4]: −0.048 | Log2 vs Vehicle, BST2 [4]: 0.241 | Log2 vs Vehicle, CAMK2A [4]: −0.697 | Log2 vs Vehicle, CAMK2B [4]: 0.054 | Log2 vs Vehicle, CAMK2D [4]: 0.038 | Log2 vs Vehicle, CAMK2G [4]: −0.054 | Log2 vs Vehicle, CD44 [4]: −0.377 | Log2 vs Vehicle, CIITA [4]: −0.076 | Log2 vs Vehicle, DDX58 [4]: 0.455 | Log2 vs Vehicle, EIF2AK2 [4]: 0.527 | Log2 vs Vehicle, EIF4A1 [4]: 0.13 | Log2 vs Vehicle, EIF4A2 [4]: 0.08 | Log2 vs Vehicle, EIF4A3 [4]: 0.079 | Log2 vs Vehicle, EIF4E2 [4]: 0.179 | Log2 vs Vehicle, EIF4E3 [4]: 0.208 | Log2 vs Vehicle, EIF4G1 [4]: −0.048 | Log2 vs Vehicle, EIF4G2 [4]: −0.071 | Log2 vs Vehicle, EIF4G3 [4]: −0.108 | Log2 vs Vehicle, FLNA [4]: 1.179 | Log2 vs Vehicle, FLNB [4]: 0.234 | Log2 vs Vehicle, GBP1 [4]: 0.343 | Log2 vs Vehicle, GBP2 [4]: −0.269 | Log2 vs Vehicle, GBP4 [4]: 0.388 | Log2 vs Vehicle, HERC5 [4]: −0.149 | Log2 vs Vehicle, HLA-A [4]: −0.128 | Log2 vs Vehicle, HLA-B [4]: 0.066 | Log2 vs Vehicle, HLA-C [4]: −0.065 | Log2 vs Vehicle, HLA-DPA1 [4]: −0.139 | Log2 vs Vehicle, HLA-DPB1 [4]: −0.023 | Log2 vs Vehicle, HLA-DQA2 [4]: −0.144 | Log2 vs Vehicle, HLA-DQB1 [4]: 0.055 | Log2 vs Vehicle, HLA-DRA [4]: −0.133 | Log2 vs Vehicle, HLA-DRB1 [4]: −0.1 | Log2 vs Vehicle, HLA-E [4]: −0.167 | Log2 vs Vehicle, HLA-F [4]: 0.408 | Log2 vs Vehicle, ICAM1 [4]: 0.31 | Log2 vs Vehicle, IFI30 [4]: 0.217 | Log2 vs Vehicle, IFI35 [4]: 0.153 | Log2 vs Vehicle, IFIT2 [4]: −0.186 | Log2 vs Vehicle, IFIT3 [4]: 0.736 | Log2 vs Vehicle, IR.F9 [4]: 0.535 | Log2 vs Vehicle, IRF1 [4]: 0.147 | Log2 vs Vehicle, IRF2 [4]: −0.265 | Log2 vs Vehicle, IRF3 [4]: 0.114 | Log2 vs Vehicle, IRF4 [4]: −0.452 | Log2 vs Vehicle, IRF5 [4]: 0.192 | Log2 vs Vehicle, IRF7 [4]: 0.264 | Log2 vs Vehicle, ISG15 [4]: 0.241 | Log2 vs Vehicle, ISG20 [4]: −0.168 | Log2 vs Vehicle, J A KI [4]: 0.036 | Log2 vs Vehicle, KPNA1 [4]: 0.045 | Log2 vs Vehicle, KPNA2 [4]: 0.058 | Log2 vs Vehicle, KPNA3 [4]: 0 | Log2 vs Vehicle, KPNA4 [4]: 0.075 | Log2 vs Vehicle, KPNB1 [4]: 0.038 | Log2 vs Vehicle, MAPK3 [4]: −0.042 | Log2 vs Vehicle, MT2A [4]: −0.297 | Log2 vs Vehicle, MX1 [4]: 1.715
